This note sets out measurements from patent publication US20190254282A1, “Non-Leaching Surface Sanitizer and Wipe with Improved Washability and/or Absorbency” (Livinguard AG, priority 2016, published 2019).

Holding throughout (format): cell-based
Test [1] deals with bacteria (Escherichia coli, Staphylococcus aureus, Pseudomonas aeruginosa, and Salmonella enterica). The test can be described thus: Antimicrobial performance of treated textiles against bacteria (Experimental Examples 1). Particulars: 6% o.w.f. of the chemical; for efficiency for killing bacteria: cotton textile treated with one single agent; for efficiency in killing bacteria: polyester textile treated with one single agent. The protocol: (§1) All microbiological tests were performed with cultures of the bacteria Escherichia coli American Type Culture Collection (ATCC) 25922, Staphylococcus aureus ATCC 6538, Pseudomonas aeruginosa ATCC 15442, Salmonella enterica ATCC 10708, and of the fungi Candida albicans ATCC 10231, and Aspergillus Niger ATCC […].
(§2) With Experimental Examples 1, the effect of the application of different numbers of agents to the starting textile materials was studied. The agents applied to the cotton material were taken from the group of silver, PHMB, and propiconazole, which are the three most preferred antimicrobial agents for treating cellulosic textile materials. The agents applied to the polyester material were taken from the group of silver, propiconazole, and quaternary ammonium organosilane compounds, which are the three most preferred antimicrobial agents for treating synthetic textile materials.
(§3) The textiles were treated with (1) each of the agents from the respective group individually, (2) all three tuple combinations of agents from the respective groups, and (3) all three agents from the respective groups together. The total amount of the chemicals in all experiments was 6% o.w.f. Thus, where one single agent was applied to the textile, 6% o.w.f. of the respective chemical was used, where a combination of two agents was applied, 3% o.w.f. of each of the respective two chemicals was used, and where a combination of three agents was applied, 2% o.w.f. of each of the respective three chemicals was used.
(§4) The finishing process was as described above in the context of the working examples, but since no hydrophilic/stain release agent was applied, there was only one process cycle. The fabric was exhausted and then dried and cured in one single pass through the stenter, with the process parameters as described above.

For test [2], the system named is fungi (Candida albicans and Aspergillus Niger). Nature of the test: Antimicrobial performance of treated textiles against fungi (Experimental Examples 1). The settings on record: 6% o.w.f. of the chemical. As for the experimental part: as §1, §2, §3, §4
Another test relates to microorganisms. Nature of the test: Tests made by the inventor on alternative metals and azoles adhered to textiles (results not reproduced).
Where [3] appears, read: cotton textile treated with one single agent.
The mark [4] stands for this setting: polyester textile treated with one single agent.

In the case of propiconazole [reference compound], the “efficiency for killing bacteria” value in test [1] was “not efficient”. Also, the “efficiency in killing bacteria” value in test [1] is “about as efficient against bacteria as silver and quaternary ammonium organosilane”. For the same compound, the “efficiency for killing fungi” value is given as “efficient” in test [2] (setting [3]) and “works well” in test [2] (setting [4]).

Consider silver, for which the “efficiency for killing bacteria” value in test [1] was “about equally efficient”. In addition, the “efficiency in killing bacteria” value in test [1] is “about equally efficient”. The “efficiency for killing fungi” value in test [2] (setting [3]) was “perform poorly”; in test [2] (setting [4]), “not efficient”. Also, the “antimicrobial performance compared with zinc and copper” value with microorganisms was “considerably higher than that of zinc, and even much higher than that of copper”.

Turning to `CCCCCCCCCCCCCCCCCC[N+](C)(C)CCC[Si](OC)(OC)OC` [Dimethyloctadecyl[3-(trimethoxysilyepropyl]ammonium chloride], the “efficiency in killing bacteria” value in test [1] was “about equally efficient”. The “efficiency for killing fungi” value in test [2] (setting [4]) was “not efficient”.
